Entries after “also recorded” stand apart in the source; their conditions may differ.
Tests used:
[1] = Blood pressure in rats (mean carotid blood pressure, urethane-anesthetized rat); format: in vivo; details: for Effect upon blood pressure (in words): rats
Method: (§1) Plasma levels of ACTH and β-END-LI are elevated for at least 5-20 minutes following the intravenous administration of CRF to nembutal-anesthesized male rats and to quiescent male or female rats with indwelling intravenous cannulae. […] Mean cartoid blood pressure in a urethane-anesthesized rat fell from 87 to 72±2 mm Hg and remained at that level for 30 minutes following an injection equal to 3 μg CRF/Kg body weight; the subsequent administration of an injection equal to 30 μg CRF/Kg body weight lowered mean blood pressure to 42±3 mm Hg for more than 2 hours.

[2] = system: cultured rat pituitary cells; test: Secretion of ACTH and β-endorphin by cultured rat pituitary cells; format: cell-based
Method: (§2) The synthetic and the natural CRF were examined for their effects on the secretion of ACTH and β-endorphin in vitro and the synthetic CRF was also examined in vivo. The high potency of synthetic and natural CRF to stimulate the secretion of ACTH and β-endorphin by cultured rat pituitary cells was measured. […] The secretory response to maximal (>5 nM) concentrations of CRF is at a plateau level. In vivo doses from 30 ng to 3 μg/Kg of body weight rapidly elevated ACTH and β-endorphin-like (β-END-LI) secretions 5-20 fold.

[3] = system: ACTH and β-END-LI secretion; test: ACTH and β-END-LI secretion in vivo in rat preparations
Method: as §2, §1

Blood pressure in dogs = format: in vivo
[4] = urethane-anesthetized rat, subsequent 30 μg CRF/Kg body weight

H-Ser-Gln-Glu-Pro-Pro-Ile-Ser-Leu-Asp-Leu-Thr-Phe-His-Leu-Leu-Arg-Glu-Val- Leu-Glu-Met-Thr-Lys-Ala-Asp-Gln-Leu-Ala-Gln-Gln-Ala-His-Ser-Asn-Arg-Lys-Leu-Leu-Asp-Ile-Ala-NH2 [synthetic CRF]
Effect upon blood pressure (in words) ([1]; listed as CRF): dramatic effect upon blood pressure
Effect upon blood pressure (in words) ([1]; listed as Synthetic CRF): substantially lower blood pressure for an extended time period
Time blood pressure remained at lowered level ([1]; urethane-anesthetized rat, 3 μg CRF/Kg body weight): 30 min
Mean carotid blood pressure after injection ([1]; urethane-anesthetized rat, 3 μg CRF/Kg body weight, fell from 87): 72±2 mm Hg
Duration of lowered mean blood pressure [1, 4]: more than 2 hours
Mean blood pressure after subsequent injection [1, 4]: 42±3 mm Hg
Maximal concentrations (secretory response at a plateau level) ([2]; cultured rat pituitary cells): > 5 nM
EC50 ([2]; cultured rat pituitary cells, concentration giving half-maximal response): ~0.1 nM
Minimal response, secretion of ACTH and β-endorphin ([2]; cultured rat pituitary cells, concentration giving minimal response): about 10 picomolar
Stimulation of ACTH and β-endorphin secretion in vitro (in words) ([2]; in vitro): stimulate ACTH and β-endorphin activies; also recorded: high potency
Stimulation of ACTH and β-END-LI secretion in vivo (in words) [3]: stimulate ACTH and β-endorphin activies
Elevation of ACTH and β-endorphin-like (β-END-LI) secretions ([3]; in vivo doses from 30 ng to 3 μg/Kg of body weight): 5-20 fold
Stimulation of ACTH and β-END-LI secretion in vivo (in words) ([3]; listed as Synthetic CRF): powerful stimulator of ACTH and β-END-LI secretion
Time for which plasma levels of ACTH and β-END-LI are elevated ([3]; intravenous administration, nembutal-anesthetized male rats and quiescent male or female rats with indwelling intravenous cannulae): 5 to 20 min
Effect upon blood pressure (in words) (Blood pressure in dogs): dramatic effect upon blood pressure
